Laboratory results from ChEMBL document CHEMBL5050861 (2021).
In brackets after ≈: the same amount, converted by molar mass.

Experiments:
[1] = Inhibition of recombinant mouse GALK1 using ATP as substrate incubated for 1 hr and measured by Kinase-Glo assay
[2] = Kinetic aqueous solubility of the compound; assay type: physicochemical; conditions: buffer; read-out: Kinetic_solubility
[3] = target: Galactokinase (Homo sapiens, UniProt P51570); experiment: Inhibition of recombinant human GALK1 using ATP as substrate incubated for 1 hr and measured by Kinase-Glo assay
[4] = Stability of compound in rat microsomes assessed as half-life; assay type: ADME, Microsome
[5] = species: Homo sapiens; experiment: Inhibition of human GALK1 K252A/E253A double mutant relative to control; parameters: concentration or dose not given beside the values; conditions: concentration not given here
[6] = Inhibition of human GALK1 K252A/E253A double mutant
[7] = Permeability of compound by PAMPA assay; assay type: ADME; conditions: read-out: permeability

Galactokinase, sequence (P51570 whole entry): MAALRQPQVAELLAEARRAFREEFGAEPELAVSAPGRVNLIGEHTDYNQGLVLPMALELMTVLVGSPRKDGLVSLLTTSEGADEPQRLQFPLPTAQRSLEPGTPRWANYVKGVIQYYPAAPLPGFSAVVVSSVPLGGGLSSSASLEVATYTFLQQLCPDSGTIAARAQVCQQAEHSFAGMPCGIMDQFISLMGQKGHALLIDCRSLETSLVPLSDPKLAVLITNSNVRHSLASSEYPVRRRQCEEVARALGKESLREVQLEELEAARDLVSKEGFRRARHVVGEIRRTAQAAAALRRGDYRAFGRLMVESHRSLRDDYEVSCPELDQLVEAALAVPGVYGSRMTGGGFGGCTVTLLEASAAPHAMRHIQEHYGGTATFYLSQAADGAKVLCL

Compound	IC50 [1]	solubility kinetic [2] [µg/mL]	IC50 [3]	half-life [4] [min]	IC50 ([1]; read-out: IC50) [µM]	IC50 ([3]; read-out: IC50) [µM]	inhibition [5] [%]	IC50 ([6]; read-out: IC50) [µM]	Papp [7] [×10⁻⁶ cm/s]	IC50 [6]
COC(=O)c1ccnc(NC(=O)C2=C(C)NC(Nc3nc4ccccc4o3)=N[C@@H]2c2ccccc2Cl)c1	Not Active	< 1	Not Active	25.6	–	–	–	–	–	–
CC1=C(C(=O)NCc2cn(C)cn2)[C@@H](c2ccccc2Cl)N=C(Nc2nc3ccccc3o2)N1	Not Active	40.5 (≈ 85.1 µM)	Not Active	8.73	–	–	–	–	–	–
COC(=O)c1ccnc(NC(=O)C2=C(C)NC(Nc3nc4cccc(N)c4o3)=NC2c2ccc(C)cc2Cl)c1 (stereo not given)	–	< 1	–	25.3	7.08	2.24	–	–	–	–
COC(=O)c1ccccc1NC(=O)C1=C(C)NC(Nc2nc3ccccc3o2)=NC1c1ccccc1Cl (stereo not given)	Not Active	–	Not Active	–	–	–	–	–	–	–
COc1ccc2oc(NC3=NC(c4ccccc4Cl)C(C(=O)Nc4cc(C(=O)O)ccn4)=C(C)N3)nc2c1 (stereo not given)	–	> 79	–	> 30	12.2	–	100	2	< 1	–
COc1cccc2nc(NC3=NC(c4ccccc4Cl)C(C(=O)Nc4cc(C(=O)O)ccn4)=C(C)N3)oc12 (stereo not given)	Not Active	65.7 (≈ 123 µM)	–	> 30	–	–	80	> 15	< 1	–
CC1=C(C(=O)Nc2cccc(C(=O)O)c2)C(c2ccccc2Cl)N=C(Nc2nc3ccccc3o2)N1 (stereo not given)	–	59.1 (≈ 118 µM)	–	> 30	6.11	–	96	3.1	< 1	–
CC1=C(C(=O)Nc2cc(C(=O)O)ccn2)C(c2cccc(F)c2Cl)N=C(Nc2nc3ccc(F)cc3o2)N1 (stereo not given)	–	< 10000	–	< 10	15.3	–	100	1.8	< 10	–
CC1=C(C(=O)Nc2ccccc2)C(c2ccccc2Cl)N=C(Nc2nc3ccccc3o2)N1 (stereo not given)	–	< 1	–	24	13.7	–	57	0.97	< 10	–
CC1=C(C(=O)Nc2cc(C(=O)O)ccn2)C(c2cccc(Cl)c2Cl)N=C(Nc2nc3ccc(F)cc3o2)N1 (stereo not given)	–	55.5 (≈ 99.9 µM)	–	> 30	21.7	–	100	3.6	< 10	–
CC1=C(C(=O)Nc2cc(C(=O)O)ccn2)C(c2cccc(C(N)=O)c2)N=C(Nc2nc3ccc(F)cc3o2)N1 (stereo not given)	–	> 78	–	> 30	21.7	–	90	3.8	< 1	–
CC1=C(C(=O)Nc2cc(C(=O)O)ccn2)C(c2cccc(C(F)(F)F)c2)N=C(Nc2nc3ccc(F)cc3o2)N1 (stereo not given)	Not Active	60.1 (≈ 108 µM)	–	> 30	–	–	90	> 15	< 1	–
CC1=C(C(=O)Nc2cc(C(=O)O)ccn2)C(c2ccccc2Cl)N=C(Nc2nc3cc(C)ccc3o2)N1 (stereo not given)	–	< 1	–	> 30	3.06	–	100	0.611	< 1	–
CC1=C(C(=O)NCc2nc3ccccc3n2C)C(c2ccccc2Cl)N=C(Nc2nc3ccccc3o2)N1 (stereo not given)	–	< 1	–	4.52	13.7	–	48	–	< 10	Not Active
CC1=C(C(=O)Nc2cc(C(=O)O)ccn2)C(c2ccccc2Cl)N=C(Nc2nc3ccc(Cl)cc3o2)N1 (stereo not given)	–	6.3 (≈ 11.7 µM)	–	> 30	6.11	–	100	2.25	< 10	–
CC1=C(C(=O)Nc2cc(C(=O)O)ccn2)C(c2ccccc2Cl)N=C(Nc2nc3cccc(F)c3o2)N1 (stereo not given)	–	> 77	–	> 30	8.63	–	100	1	< 1	–
CC1=C(C(=O)Nc2cc(C(=O)O)ccn2)C(c2ccccc2Cl)N=C(Nc2nc3cc(Cl)ccc3o2)N1 (stereo not given)	–	35.2 (≈ 65.5 µM)	–	> 30	6.11	–	100	1.7	< 1	–
CC1=C(C(=O)Nc2cc(C(=O)O)ccn2)C(c2ccccc2Cl)N=C(Nc2nc3cc(N)ccc3o2)N1 (stereo not given)	–	> 76	–	> 30	21.7	–	100	5.5	10	–
CC1=C(C(=O)Nc2cc(C(=O)O)ccn2)C(c2ccccc2Br)N=C(Nc2nc3ccc(F)cc3o2)N1 (stereo not given)	–	36 (≈ 63.7 µM)	–	> 30	3.85	–	100	0.235	< 10	–
CC1=C(C(=O)Nc2cc(C(=O)O)ccn2)[C@H](c2ccccc2Cl)N=C(Nc2nc3cccc(N)c3o2)N1	–	–	–	–	1.72	0.086	–	–	–	–
CC1=C(C(=O)Nc2cc(C(=O)O)ccn2)C(c2cccc(S(N)(=O)=O)c2)N=C(Nc2nc3ccc(F)cc3o2)N1 (stereo not given)	–	> 84	–	> 30	38.5	–	75	> 15	< 10	–
CC1=C(C(=O)Nc2cc(C(=O)O)ccn2)C(c2ccccc2Cl)N=C(Nc2nc3cc(F)ccc3o2)N1 (stereo not given)	–	< 10000	–	< 10	17.2	–	100	3.6	< 10	–
CC1=C(C(=O)Nc2cc(C(=O)O)ccn2)C(c2cccc(C(F)(F)F)c2Cl)N=C(Nc2nc3ccc(F)cc3o2)N1 (stereo not given)	–	70.1 (≈ 119 µM)	–	> 30	27.3	–	97	2.4	< 10	–
CC1=C(C(=O)Nc2cc(C(=O)O)ccn2)C(c2ccccc2Cl)N=C(Nc2nc3cccc(Cl)c3o2)N1 (stereo not given)	–	57.5 (≈ 107 µM)	–	> 30	9.68	–	100	1	< 1	–
CC1=C(C(=O)NCc2nccn2C)C(c2ccccc2Cl)N=C(Nc2nc3ccccc3o2)N1 (stereo not given)	–	23 (≈ 48.3 µM)	–	6.42	13.7	–	94	11	> 1110	–
CC1=C(C(=O)Nc2cc(C(=O)O)ccn2)C(c2ccc(Cl)cc2Cl)N=C(Nc2nc3ccc(F)cc3o2)N1 (stereo not given)	–	< 1	–	> 30	3.85	–	85	0.345	< 1	–
CC1=C(C(=O)Nc2cc(C(=O)O)ccn2)C(c2ccccc2Cl)N=C(Nc2nc3cccc(C(F)(F)F)c3o2)N1 (stereo not given)	–	61.1 (≈ 107 µM)	–	> 30	48.5	–	100	> 15	< 1	–
CC1=C(C(=O)Nc2cc(C(=O)O)ccn2)C(c2ccccc2Cl)N=C(Nc2nc3c(C)cccc3o2)N1 (stereo not given)	–	3.5 (≈ 6.77 µM)	–	> 30	17.2	–	100	5.5	< 1.3	–
COc1ccc(C2N=C(Nc3nc4ccc(F)cc4o3)NC(C)=C2C(=O)Nc2cc(C(=O)O)ccn2)c(Cl)c1 (stereo not given)	–	8.3 (≈ 15.1 µM)	–	> 30	3.06	–	100	0.3	< 10	–
